Test results as given in patent US4341756A, “Novel amino-dioxepane intermediates for the synthesis of new non-ionic contrast media” (The Regents of the University of California, priority 1980, dated 1982).

Legend:
Water solubility = type: physicochemical; settings: at 20° C.
Description: (§1) This compound was synthesized as described for the hydroxyacetyl analog (VIIIb). The product was obtained in 69% yield as a colorless glassy solid.

Viscosity = type: physicochemical; settings: 37° C., 300 mgI/ml
Description: as §1

mice = test: Systemic Toxicity: LD50 of compound injected intravenously in mice; type: in vivo; settings: intravenous, groups of 10 mice
Protocol: (§2) Employing conventional procedures, the following tests were carried out and compared with known commercially available contrast media. The following tables indicate the results.
LD50 (gI/kg bw) of compound injected
intravenously in groups of 10 mice.

rats [1] = test: Neurotoxicity: neural deficits after intracisternal injections in rats; type: in vivo; settings: for Deficit Scores: average of 10 rats, 0 = normal; for Neural deficits: rats
Protocol: as §2
tions in rats with chronically implanted
cannulas into the right ventricle.
Deficit scores were calculated on the basis of a preset rating (average o

rats [2] = test: Aversive conditioning in rats (preference/avoidance after injection into the lateral ventricle); type: in vivo; settings: for Aversion expressed in relation to Metrizamide: Metrizamide = 1; for % Aversion: injection into the lateral ventricle, average from a group of 10 rats
Protocol: as §2
Aversive conditioning in rats: (Test-
ing for preference/avoidance after an injection
into the lateral ventricle via a chronically im-
planted cannula) (Average from a group of 10 rats)

Blepharisma americ. = test: Cell Toxicity: LD50 at 4' of a standardized culture of a protozoan; type: cell-based; settings: for LD50: at 4', standardized culture of Blepharisma americ.
Protocol: as §2
(LD50 at 4' of a standardized culture of a
protozoan Blepharisma americ.)

SMILES	solubility in water (Water solubility) [mgI/ml]	viscosity (Viscosity) [cps]	LD50 (mice) [gI/kg bw]	Deficit Scores (rats [1]; 40 mg I)	Neural deficits (rats [1]; 40 mg I)	Deficit Scores (rats [1]; 60 mg I)	Deficit Scores (rats [1]; 100 mg I)	Aversion expressed in relation to Metrizamide (rats [2]) [times less aversive]	% Aversion (rats [2]) [%]	LD50 (Blepharisma americ.) [mg I/ml]	Conclusion on toxicity (Blepharisma americ.; compared with Iopamidol and Metrizamide)	Neural deficits (rats [1]; 100 mg I)	Neural deficits (rats [1]; 60 mg I)
CC(O)C(=O)Nc1c(I)c(C(=O)NC(CO)C(O)CO)c(I)c(C(=O)NC(CO)C(O)CO)c1I (racemic) [VIIIc, 2,4,6-triiodo-5-(2-DL or L-hydroxypropionylamino)-isophthalic acid-bis-N,N'-(1,3,4-trihydroxy-threo-but-2-yl)-amide]	> 400	6.6	21.3	0	Normal	3.0 ± 1.73	26 ± 3.2	3.4	9.4	148	lower toxicity than Iopamidol and Metrizamide		
C[C@H](O)C(=O)Nc1c(I)c(C(=O)NC(CO)CO)c(I)c(C(=O)NC(CO)CO)c1I [Iopamidol, N,N'-di(1',3'-dihydroxypropyl-2') 5-L-lactoylamido triiodoisophthaldiamide, reference compound]			18.7	1.75 ± 0.96		22.0		1.2	24.6	136		Death	
CC(=O)Nc1c(I)c(C(=O)N[C@H]2C(O)O[C@H](CO)[C@@H](O)[C@@H]2O)c(I)c(N(C)C(C)=O)c1I (stereo partly shown) [Metrizamide, 3-acetamido-5-(N-methylacetamido) triiodobenzoyl derivative of glucosamine, reference compound]			12.1	25.3 ± 10.1		84.2 ± 12.3		1	29.8	133		Death	
CN(C(=O)CC(=O)N(C)c1c(I)c(C(=O)NC(CO)C(O)CO)c(I)c(C(=O)NC(CO)C(O)CO)c1I)c1c(I)c(C(=O)NC(CO)C(O)CO)c(I)c(C(=O)NC(CO)C(O)CO)c1I (stereo not drawn) [XVIII, N,N'-bis-Methyl-N,N'-bis [2,4,5-triiodo-3,5-bis-{N,N'-(1,3,4-trihydroxy-threo-but-2-yl)}-carbamoylphenyl]malondiamide]				0	Normal	0	0					Normal	Normal
